The results in this text go back to PubChem BioAssay (NCI).

Molecules are shown by their SMILES. “And” between values parts separate entries of the source, which are not always exact repeats. Equal values may be shown once.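 In this assay, cells in 96-well plates receive the compound at five concentrations for 48 hours. Endpoints are linearly interpolated between the surrounding concentrations. GI50: concentration for 50% inhibition of growth. At the TGI there is no net growth.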 Bounds are passed on as bounds.

Some test systems named below: BT-549 breast; HCC-2998 colon; M14 melanoma; MDA-MB-231 breast; NCI-H226 lung; OVCAR-4 ovarian; RPMI-8226 leukemia; SF-539 CNS; SNB-75 CNS; UACC-62 melanoma.
Common to all, as to experiment: growth of human tumour cells (NCI), 48 h

As to `NC(N)=NC(N)=Nc1cc2ccccc2c2ccccc12`, the GI50 in the test on BT-549 breast was 10.5 µM; with HCC-2998 colon, 6.89 µM; in the test on M14 melanoma, 10.6 µM; with MDA-MB-231 breast it was 3.52 µM; with NCI-H226 lung it was 10.5 µM; with OVCAR-4 ovarian, 10.1 µM. The GI50 in the test on RPMI-8226 leukemia was 4.49 µM; in the test on SF-539 CNS it was 10.6 µM; with SNB-75 CNS, 5.12 µM; in the test on UACC-62 melanoma, 12.1 µM. Besides, the TGI was determined as 22.8 µM in the test on BT-549 breast; 24.2 µM in the test on HCC-2998 colon; 24.7 µM in the test on M14 melanoma; 16 µM in the test with MDA-MB-231 breast; 25.5 µM in the test with NCI-H226 lung; 25.9 µM in the test on OVCAR-4 ovarian. Besides, the TGI with RPMI-8226 leukemia turned out to be 26 µM; in the test with SF-539 CNS it was 23.5 µM; with SNB-75 CNS, 19.9 µM; with UACC-62 melanoma it was 25.8 µM.

Turning to `CCCCNC(=O)NS(=O)(=O)c1ccc(N2N=C(c3ccc(C)cc3C)CC2c2ccc(N(C)C)cc2)cc1` (configuration not stated), the GI50 with BT-549 breast is 4.11 µM; in the test on HCC-2998 colon, 2.25 µM; in the test with M14 melanoma, 4.06 µM; in the test with MDA-MB-231 breast, 5.36 µM; with NCI-H226 lung, 4.54 µM; in the test with OVCAR-4 ovarian, 5.41 µM. For the same compound, the GI50 in the test on RPMI-8226 leukemia was 2.99 µM; in the test on SF-539 CNS it was 3.22 µM; in the test with SNB-75 CNS it was 3.81 µM; in the test with UACC-62 melanoma, 2.18 µM. In addition, the TGI in the test on BT-549 breast was 37.1 µM; in the test with HCC-2998 colon, 5.1 µM; with M14 melanoma it was above 100 µM; with MDA-MB-231 breast, 35.6 µM; in the test on NCI-H226 lung, 21.8 µM; in the test on OVCAR-4 ovarian, above 100 µM. The TGI in the test with RPMI-8226 leukemia is 9.66 µM; in the test with SF-539 CNS, 14 µM; in the test with SNB-75 CNS it was above 100 µM; in the test with UACC-62 melanoma it was 6.12 µM.

Regarding `Cc1cc(C2CCCCC2)n(O)c(=O)c1`, the GI50 in the test with BT-549 breast was 6.19 µM; with HCC-2998 colon, 2.94 µM; in the test with M14 melanoma it was 1.39 µM; with MDA-MB-231 breast, 2.16 µM; with NCI-H226 lung, 2.2 µM; in the test on OVCAR-4 ovarian, 0.75 µM. Further, the GI50 in the test on SF-539 CNS was 2.04 µM; with SNB-75 CNS, 1.96 µM; in the test with UACC-62 melanoma, 0.873 µM. The TGI with BT-549 breast was above 100 µM; in the test on HCC-2998 colon, > 100 µM and 35.5 µM; in the test on MDA-MB-231 breast it was above 100 µM; in the test on NCI-H226 lung, above 100 µM; with OVCAR-4 ovarian, above 100 µM; with RPMI-8226 leukemia it was 46.8 µM. In addition, the TGI was 80.9 µM and 93.8 µM with SF-539 CNS; > 100 µM and 58.1 µM with SNB-75 CNS; 8.85 µM and 18.6 µM with UACC-62 melanoma.

Turning to `COc1ccc(/C(=N/Nc2ccc([N+](=O)[O-])cc2)Sc2cc(Cl)c(C)cc2S(N)(=O)=O)cc1`, the GI50 with BT-549 breast was 22.2 µM; in the test with HCC-2998 colon, 4.29 µM; with M14 melanoma, 5.75 µM; with MDA-MB-231 breast, 3.04 µM; with NCI-H226 lung it was 3.52 µM; in the test with OVCAR-4 ovarian, 2.61 µM. The GI50 is 5.11 µM in the test with RPMI-8226 leukemia, 3.74 µM in the test on SF-539 CNS, 2.68 µM in the test on SNB-75 CNS and 3.02 µM in the test on UACC-62 melanoma. Further, the TGI was 42.3 µM in the test with BT-549 breast; 8.75 µM in the test on HCC-2998 colon; 15.3 µM in the test on M14 melanoma; 8.21 µM with MDA-MB-231 breast; 9.63 µM in the test on NCI-H226 lung; 7.11 µM with OVCAR-4 ovarian. For the same compound, the TGI with RPMI-8226 leukemia worked out at 13.6 µM; with SF-539 CNS, 9.81 µM; in the test on SNB-75 CNS it was 6.39 µM; with UACC-62 melanoma, 8.54 µM.

On to `COc1cc([N+](=O)[O-])ccc1NC(=O)C(F)(F)F`, for which the TGI in the test with BT-549 breast, in the test with M14 melanoma, in the test with MDA-MB-231 breast, in the test on NCI-H226 lung, in the test with OVCAR-4 ovarian and in the test with RPMI-8226 leukemia was above 100 µM in each case. Moreover, the TGI in the test with SF-539 CNS, with SNB-75 CNS and with UACC-62 melanoma was above 100 µM each time.

Take `COc1cc2c3c(n(CCCCl)c(=O)c2cc1OC)-c1ccccc1C3=O`: the GI50 in the test with BT-549 breast is above 100 µM; in the test with HCC-2998 colon, above 100 µM; in the test with M14 melanoma, 5.96 µM; with MDA-MB-231 breast, 37 µM; in the test with RPMI-8226 leukemia it was 25.4 µM; in the test with SF-539 CNS, 14.1 µM. Further, the GI50 in the test with UACC-62 melanoma is 12.4 µM. Further, the TGI with BT-549 breast, with HCC-2998 colon, in the test on M14 melanoma, with MDA-MB-231 breast, in the test on RPMI-8226 leukemia and with SF-539 CNS was above 100 µM throughout. Also, in the test with UACC-62 melanoma, the TGI was 54.9 µM.

For `C[C@]12CC[C@@H]3c4ccc(Oc5nc(N6CC6)nc(N6CC6)n5)cc4CC[C@H]3[C@@H]1CCC2=O`, the GI50 in the test with BT-549 breast is 5.92 µM; with M14 melanoma it was 3.58 µM; in the test with MDA-MB-231 breast, 10.2 µM; in the test on NCI-H226 lung, 3.23 µM; with OVCAR-4 ovarian, 3.38 µM; with RPMI-8226 leukemia, 2.17 µM. Also, the GI50 is 2.2 µM in the test on SF-539 CNS and 2.55 µM in the test on SNB-75 CNS. The TGI was found to be 25.3 µM in the test with BT-549 breast; 21.7 µM in the test on M14 melanoma; 25.2 µM in the test with MDA-MB-231 breast; 30.8 µM with NCI-H226 lung; 15.2 µM in the test with OVCAR-4 ovarian; 7.58 µM in the test with RPMI-8226 leukemia. In addition, the TGI was found to be 7.43 µM in the test on SF-539 CNS and 14.9 µM in the test on SNB-75 CNS.

As to `COc1cc2c3c(n(CCCBr)c(=O)c2cc1OC)-c1ccc(NC(C)=O)cc1C3=O`, the GI50 was 8 µM with BT-549 breast; 11.9 µM in the test on HCC-2998 colon; 4.33 µM with M14 melanoma; 25.8 µM with MDA-MB-231 breast; 5.17 µM with NCI-H226 lung; 32.3 µM with OVCAR-4 ovarian. Moreover, the GI50 in the test with RPMI-8226 leukemia is 5.28 µM; with SF-539 CNS, 3.78 µM; with SNB-75 CNS, 12.1 µM; in the test with UACC-62 melanoma it was 2.1 µM. Also, the TGI is 34.7 µM in the test on BT-549 breast; 43.9 µM with HCC-2998 colon; 20.6 µM in the test with M14 melanoma; above 100 µM in the test on MDA-MB-231 breast; 57.3 µM in the test with NCI-H226 lung; above 100 µM in the test on OVCAR-4 ovarian. The TGI in the test with RPMI-8226 leukemia was 27.2 µM; in the test on SF-539 CNS it was 16.2 µM; in the test on SNB-75 CNS it was 54 µM; in the test on UACC-62 melanoma, 15.7 µM.
